# Assay results: patent US12350290B2, “Compositions and methods that promote hypoxia or the hypoxia response for treatment and prevention of mitochondrial dysfunction and oxidative stress disorders” (The General Hospital Corporation, priority 2015, dated 2025)
# Columns and labels:
# HIF1α = HIF1α stabilization in cell culture; format: cell-based; details: for effect of respiratory chain inhibition on HIF1α stabilization: hypoxia, respiratory chain inhibitor alone
# Excerpt: It has previously been noted that a paradox exists between mitochondrial dysfunction and cellular sensing of hypoxia (Chandel et al., Proc. Natl. Acad. Sci. U.S.A. 95:11715-20 (1998)). In cell culture, inhibition of the respiratory chain prevents HIF stabilization, even under low oxygen conditions that would otherwise trigger the hypoxia response. Proposed explanations include higher cellular oxygen tensions and […] ROS production during states of mitochondrial dysfunction. While this phenomenon has been noted in the hypoxia field, it has received less attention in the context of mitochondrial disease pathogenesis. If such a paradox extends to mitochondrial disease patients, such individuals may be unable to stabilize HIF in physiological conditions of hypoxia.
# HT-29 cells = test: Anaerobic glycolysis measured as lactic acid; format: cell-based; details: basal conditions and with respiratory chain inhibition
# Excerpt: (§1) The shift in energy metabolism was confirmed by measuring lactic acid as the end-product of anaerobic glycolysis and oxygen consumption as a proxy for aerobic respiration. […] Thus cells are able to shift towards glycolysis using endogenous defense mechanisms; however, a transcriptional response is needed to increase the glycolytic flux enough to maintain cellular growth rates. Furthermore, basal oxygen consumption was decreased with FG-4592 treatment. This may be protective in the setting of mitochondrial dysfunction, as it may limit the amount of ROS produced by impaired electron transport. Genetic and small molecule activation of the HIF pathway enabled cells to cope with mitochondrial dysfunction at multiple steps of the electron transport chain and in multiple cell types. The small molecule, FG-4592, normoxically stabilized HIF and thereby increased glycolysis beyond allosteric mechanisms. Furthermore, it bypassed the paradox between mitochondrial dysfunction and HIF stabilization during hypoxia.
# [1] = tested on: HT-29s, HEK 293s and K562s; test: Rescue of growth defect caused by respiratory chain inhibition; format: cell-based
# Excerpt: After VHL was confirmed as an effective therapeutic target for mitochondrial disease, clinically-relevant options for triggering the hypoxia response were studied. While a VHL-inhibitor has been reported (Buckley et al., J. Am. Chem. Soc. 134:4465-68 (2012)), it is not cell permeable. However, PHD inhibitors have been extensively developed for the treatment of anemia of chronic kidney disease and ischemic injury (Rabinowitz, J. Med. Chem. 56:9369-9402 (2013)). The small molecule PHD inhibitor, FG-4592, also known as roxadustat, is currently in Phase III clinical trials for chronic kidney disease. […] FG-4592 treatment may mimic VHL-knockout, thus triggering a broader hypoxia transcriptional program. Compounds that trigger the hypoxia response including VHL-inhibitors and PHD inhibitors are therapeutics for mitochondrial dysfunction. Pre-treatment and incubation with FG-4592 almost completely rescued the growth defects caused by deficiency of multiple respiratory complexes, in multiple cell lines (FIGS. 12-13). […] Complex I, III or V inhibition stunts cell growth in most cell lines, including HT-29s, HEK 293s and […]. […] The nearly full rescue of the disease state across different cell lines and across chemical lesions highlights the general utility of this approach.
# [2] = tested on: hypoxia response elements (HREs) fused to GFP; test: Zebrafish hypoxia reporter strain (HRE-GFP) fluorescence; format: in vivo; details: 6 hours of exposure to 2.5 μM FG-4592
# Excerpt: A zebrafish reporter strain was used to monitor activation of the hypoxia transcriptional response (Santhakumar et al., Cancer Res. 72, 4017-27 (2012)). The reporter fish has a promoter containing hypoxia response elements (HREs) fused to GFP. Hypoxia exposure or VHL knockdown causes an increase in GFP expression, allowing for in vivo monitoring of the hypoxia response. This model system could be used to monitor drug-target engagement and pharmacodynamics of a HIF activator (Chowdhury et al., ACS Chem Biol. 8:1488-96 (2013)).
# Antimycin inhibits oxygen consumption of zebrafish embryos (Stackley, et al., PLOS One. 6, e25652 (2011)).
# [3] = tested on: HIF-responsive genes (HK2, GLUT1, LDHA, PDK1); test: Transcription of energy metabolism genes (hypoxia transcriptional program); format: cell-based
# Excerpt: The HIF transcriptional response is believed to be protective during states of hypoxia, at least in part by causing a rewiring of energy metabolism. By shifting from aerobic respiration to anaerobic glycolysis, the HIF1α response can maintain the energy supply at low oxygen tensions. FG-4592 caused normoxic stabilization of HIF proteins. […] Glucose import and phosphorylation are rate-limiting steps in the glycolytic flux of many tissues. […] HIF1α activation is also known to shunt the carbon supply away from the TCA cycle and towards the LDH reaction. Several mechanisms have been proposed for this shift away from aerobic respiration, including pyruvate dehydrogenase phosphorylation. […] Thus, cells were unable to mount the appropriate transcriptional response by endogenous mechanisms.
# multiple cell types = test: Oxygen consumption as proxy for aerobic respiration; format: cell-based; details: FG-4592 treatment
# Excerpt: as §1
# zebrafish embryos = test: Zebrafish embryo survival with Antimycin
# K562 cells = test: Mitochondrial disease model: K562 cell growth with Antimycin; format: cell-based; details: three weeks
# Procedure: Mitochondrial disease was modeled in the suspension cell line, K562, and a CRISPR screen was performed to identify potential drug targets. The natural product, Antimycin, was used as a complex III inhibitor of the respiratory chain. In the presence of Antimycin, the respiratory chain is unable to oxidize high energy reducing equivalents to power ATP production. However, redox recycling by the cytoplasmic lactate dehydrogenase reaction, allows other NAD+ dependent reactions to proceed. […] Mitochondrial disease was modeled with the addition of Antimycin alone (moderate disease) or Antimycin in combination with removal of pyruvate (severe disease), using cell growth as a proxy for disease magnitude (FIG. 3). K562 cells were infected with a ˜65,000 sgRNA library, targeting ˜18,000 genes (Shalem et al., Science, 343:84-88 (2014)). After one week of genome editing, the pool of knockout cells were divided into experimental conditions of untreated, moderate disease and severe disease states (FIG. 4). Samples for an enrichment screen were collected by allowing the knockout pool to grow in selection conditions for three weeks. The relative growth between untreated and moderate disease conditions was 100-fold and between untreated and severe disease conditions was 10,000-fold (FIG. 5). […]
Compound,HIF1α stabilization (HIF1α; hypoxic conditions),"HIF1α stabilization during respiratory chain inhibition (HIF1α; mitochondrial dysfunction, normoxia or hypoxia)",HIF1α stabilization (HIF1α; normoxic conditions),increase of glycolysis (HT-29 cells) [%],rescue of growth under ATP synthase inhibition ([1]; ATP synthase inhibition),normal growth rates ([1]; no respiratory chain inhibition),"rescue of growth defect from Complex I, III or V inhibition ([1]; ~50 uM FG-4592 in advance and during respiratory chain dysfunction, dose-dependent)",fluorescence of reporter fish [2],transcription of glucose transporter 1 (GLUT1) ([3]; FG-4592 for 24 h),transcription of hexokinase 2 (HK2) ([3]; FG-4592 for 24 h),transcription of lactate dehydrogenase (LDHA) ([3]; FG-4592 treatment),transcription of pyruvate dehydrogenase kinase (PDK1) ([3]; after FG-4592 treatment),hypoxia transcriptional program ([3]; during respiratory chain inhibition),basal oxygen consumption (multiple cell types),survival of zebrafish embryos (zebrafish embryos; intermediate concentrations of Antimycin),effect of respiratory chain inhibition on HIF1α stabilization (HIF1α),toxicity to zebrafish embryos (zebrafish embryos; prolonged treatment at low nanomolar concentrations),relative growth between untreated and moderate disease conditions (K562 cells; moderate disease: 100 nM Antimycin with 1 mM pyruvate) [fold],relative growth between untreated and severe disease conditions (K562 cells; severe disease: 100 nM Antimycin without pyruvate)
"Cc1nc(C(=O)NCC(=O)O)c(O)c2ccc(Oc3ccccc3)cc12 [FG-4592, N-[(4-hydroxy-1-methyl-7-phenoxy-3-isoquinolinyl)carbonyl]glycine]",stabilized HIF1α beyond the endogenous hypoxia response of untreated cells,enabled HIF1α stabilization in the face of mitochondrial dysfunction,stabilized the transcription factor even during normoxia,~60,significantly rescued,minimally increased,nearly or completely rescued this growth defect,robust increase in fluorescence,upregulated in multiple cell types,upregulated in multiple cell types,similarly upregulated,significant upregulation,"triggered the hypoxia transcriptional program, even during respiratory chain inhibition",decreased,nearly doubled survival,,,,
Antimycin,,,,,,,,,,,,,,,,prevented HIF1α stabilization during hypoxia,resulted in death of embryos,100,"10,000 fold"
CC[C@H]1/C=C/C=C/C[C@@H](C)[C@H](O)[C@@](C)(O)C(=O)[C@@H](C)[C@H](O)[C@@H](C)C(=O)[C@@H](C)[C@H](O)[C@@H](C)/C=C/C(=O)O[C@@H]2[C@H](C)[C@H](CC1)O[C@]1(CC[C@H](C)[C@H](C[C@@H](C)O)O1)[C@H]2C [Oligomycin],,,,,,,,,,,,,,,,prevented HIF1α stabilization during hypoxia,,,
